One may read the LD50 as the dose at which mortality reaches 50%. Low readings indicate a more toxic substance, high ones a less toxic substance.

Bridge positions count the residues as written; N and C are the ends. Peptide text beside a SMILES is read from it.

The nature of the data set: toxicity in vivo, LD50 after intracerebroventricular injection. Conditions: mouse, icv or intrathecal, 20 g C57/BL6 mice. The method, then: Groups of six to eight mice per dose were injected with 5 μl peptide solution containing 0.1% (w/v) bovine serum albumin and 0.9% (w/v) NaCl. The LD50 values are set out in Table 5.
The compound `CC[C@H](C)[C@@H]1NC(=O)[C@H](CCCCN)NC(=O)[C@@H](NC(=O)[C@H](CCCCN)NC(=O)[C@@H](NC(=O)[C@H](CC(N)=O)NC(=O)[C@@H](NC(=O)[C@@H](NC(=O)[C@@H](NC(=O)CN)C(C)C)[C@@H](C)CC)[C@@H](C)CC)C(C)C)CSSC[C@@H]2NC(=O)[C@H](CCCCN)NC(=O)CNC(=O)[C@H](Cc3ccccc3)NC(=O)[C@H](CCCNC(=N)N)NC(=O)[C@H](CCSC)NC(=O)CNC(=O)[C@H](C)NC(=O)[C@H](CC(=O)O)NC(=O)[C@H](CCCCN)NC(=O)[C@@H]3CSSC[C@@H](C(=O)N[C@H](C(=O)N4CCC[C@H]4C(=O)N[C@@H](CCCCN)C(=O)O)[C@@H](C)O)NC(=O)[C@H](Cc4c[nH]cn4)NC(=O)[C@H](CSSC[C@H](NC(=O)[C@H](CCC(N)=O)NC(=O)[C@H](CCCNC(=N)N)NC(=O)[C@H](CO)NC1=O)C(=O)N[C@@H](CC(C)C)C(=O)N[C@@H](CCCCN)C(=O)N1CCC[C@H]1C(=O)N3)NC(=O)[C@H](CCCCN)NC(=O)[C@H](CCCNC(=N)N)NC(=O)[C@H](CC(N)=O)NC(=O)[C@H](CCSC)NC2=O` came in with an LD50 of 5 µg/kg. For `CC[C@H](C)[C@@H]1NC(=O)[C@H](CCCCN)NC(=O)[C@@H](NC(=O)[C@H](CCCCN)NC(=O)[C@@H](NC(=O)[C@H](CC(N)=O)NC(=O)[C@@H](NC(=O)[C@@H](NC(=O)[C@@H](NC(=O)CNC(C)=O)C(C)C)[C@@H](C)CC)[C@@H](C)CC)C(C)C)CSSC[C@@H]2NC(=O)[C@H](CCCCN)NC(=O)CNC(=O)[C@H](Cc3ccccc3)NC(=O)[C@H](CCCNC(=N)N)NC(=O)[C@H](CCSC)NC(=O)CNC(=O)[C@H](C)NC(=O)[C@H](CC(=O)O)NC(=O)[C@H](CCCNC(=N)N)NC(=O)[C@@H]3CSSC[C@@H](C(=O)N[C@H](C(=O)N4CCC[C@H]4C(=O)N[C@@H](CCCCN)C(=O)O)[C@@H](C)O)NC(=O)[C@H](Cc4c[nH]cn4)NC(=O)[C@H](CSSC[C@H](NC(=O)[C@H](CCC(N)=O)NC(=O)[C@H](CCCCN)NC(=O)[C@H](CO)NC1=O)C(=O)N[C@@H](CC(C)C)C(=O)N[C@@H](CCCCN)C(=O)N1CCC[C@H]1C(=O)N3)NC(=O)[C@H](CCCCN)NC(=O)CNC(=O)[C@H](CC(N)=O)NC(=O)[C@H](CCSC)NC2=O` (Ac-GVIINVKCKISKQCLKPCRDAGMRFGKCMNGKCHCTPK-OH; disulfide 8-28, 14-33, 18-35) the value was 17.5 µg/kg; for `CC[C@H](C)[C@@H]1NC(=O)[C@H](CCCCN)NC(=O)[C@@H](N)CSSC[C@@H]2NC(=O)[C@H](CCCCN)NC(=O)CNC(=O)[C@H](Cc3ccccc3)NC(=O)[C@H](CCCNC(=N)N)NC(=O)[C@H](CCSC)NC(=O)CNC(=O)[C@H](C)NC(=O)[C@H](CC(=O)O)NC(=O)[C@H](CCCCN)NC(=O)[C@@H]3CSSC[C@@H](C(=O)N[C@H](C(=O)N4CCC[C@H]4C(=O)N[C@@H](CCCCN)C(=O)O)[C@@H](C)O)NC(=O)[C@H](Cc4c[nH]cn4)NC(=O)[C@H](CSSC[C@H](NC(=O)[C@H](CCC(N)=O)NC(=O)[C@H](CCCNC(=N)N)NC(=O)[C@H](CO)NC1=O)C(=O)N[C@@H](CC(C)C)C(=O)N[C@@H](CCCCN)C(=O)N1CCC[C@H]1C(=O)N3)NC(=O)[C@H](CCCCN)NC(=O)CNC(=O)[C@H](CC(N)=O)NC(=O)[C@H](CCSC)NC2=O` (H-CKISRQCLKPCKDAGMRFGKCMNGKCHCTPK-OH; disulfide 1-21, 7-26, 11-28), 15 µg/kg; for `CC[C@H](C)[C@@H]1NC(=O)[C@H](CCCCN)NC(=O)[C@@H](NC(=O)[C@H](CCCCN)NC(=O)[C@@H](NC(=O)[C@H](CC(N)=O)NC(=O)[C@@H](NC(=O)[C@@H](NC(=O)[C@@H](NC(=O)CN)C(C)C)[C@@H](C)CC)[C@@H](C)CC)C(C)C)CSSC[C@@H]2NC(=O)[C@H](CCCCN)NC(=O)CNC(=O)[C@H](Cc3ccccc3)NC(=O)[C@H](CCCNC(=N)N)NC(=O)[C@H](CCSC)NC(=O)CNC(=O)[C@H](C)NC(=O)[C@H](CC(=O)O)NC(=O)[C@H](CCCCN)NC(=O)[C@@H]3CSSC[C@@H](C(=O)N[C@H](C(=O)N4CCC[C@H]4C(=O)N[C@@H](CCCCN)C(=O)O)[C@@H](C)O)NC(=O)[C@H](Cc4c[nH]cn4)NC(=O)[C@H](CSSC[C@H](NC(=O)[C@H](CCC(N)=O)NC(=O)[C@@H]4CCCN4C(=O)[C@H](CO)NC1=O)C(=O)N[C@@H](CC(C)C)C(=O)N[C@@H](CCCCN)C(=O)N1CCC[C@H]1C(=O)N3)NC(=O)[C@H](CCCCN)NC(=O)CNC(=O)[C@H](CC(N)=O)NC(=O)[C@H](CCSC)NC2=O` (H-GVIINVKCKISPQCLKPCKDAGMRFGKCMNGKCHCTPK-OH; disulfide 8-28, 14-33, 18-35), 7.5 µg/kg. Then `CC[C@H](C)[C@@H]1NC(=O)[C@H](CCCCN)NC(=O)[C@@H](NC(=O)[C@H](CCCCN)NC(=O)[C@@H](NC(=O)[C@H](CC(N)=O)NC(=O)[C@@H](NC(=O)[C@@H](NC(=O)[C@@H](NC(=O)CN)C(C)C)[C@@H](C)CC)[C@@H](C)CC)C(C)C)CSSC[C@@H]2NC(=O)[C@H](CCCCN)NC(=O)CNC(=O)[C@H](Cc3ccccc3)NC(=O)[C@H](CCCNC(=N)N)NC(=O)[C@H](CCSC)NC(=O)CNC(=O)[C@H](C)NC(=O)[C@H](CC(=O)O)NC(=O)[C@H](CCCCN)NC(=O)[C@@H]3CSSC[C@@H](C(=O)O)NC(=O)[C@H](Cc4c[nH]cn4)NC(=O)[C@H](CSSC[C@H](NC(=O)[C@H](CCC(N)=O)NC(=O)[C@H](CCCNC(=N)N)NC(=O)[C@H](CO)NC1=O)C(=O)N[C@@H](CC(C)C)C(=O)N[C@@H](CCCCN)C(=O)N1CCC[C@H]1C(=O)N3)NC(=O)[C@H](CCCCN)NC(=O)CNC(=O)[C@H](CC(N)=O)NC(=O)[C@H](CCSC)NC2=O` (H-GVIINVKCKISRQCLKPCKDAGMRFGKCMNGKCHC-OH; disulfide 8-28, 14-33, 18-35), with 800 µg/kg; and `CC[C@H](C)[C@@H]1NC(=O)[C@H](CCCCN)NC(=O)[C@@H](NC(=O)[C@H](CCCCN)NC(=O)[C@@H](NC(=O)[C@H](CC(N)=O)NC(=O)[C@@H](NC(=O)[C@@H](NC(=O)[C@@H](NC(=O)CN)C(C)C)[C@@H](C)CC)[C@@H](C)CC)C(C)C)CSSC[C@@H]2NC(=O)[C@H](CCCCN)NC(=O)CNC(=O)[C@H](CC(N)=O)NC(=O)[C@H](CCCNC(=N)N)NC(=O)[C@H](CCSC)NC(=O)CNC(=O)[C@H](C)NC(=O)[C@H](CC(=O)O)NC(=O)[C@H](CCCCN)NC(=O)[C@@H]3CSSC[C@@H](C(=O)N[C@H](C(=O)N4CCC[C@H]4C(=O)N[C@@H](CCCCN)C(=O)O)[C@@H](C)O)NC(=O)[C@H](Cc4c[nH]cn4)NC(=O)[C@H](CSSC[C@H](NC(=O)[C@H](CCC(N)=O)NC(=O)[C@H](CCCNC(=N)N)NC(=O)[C@H](CO)NC1=O)C(=O)N[C@@H](CC(C)C)C(=O)N[C@@H](CCCCN)C(=O)N1CCC[C@H]1C(=O)N3)NC(=O)[C@H](CCCCN)NC(=O)CNC(=O)[C@H](CC(N)=O)NC(=O)[C@H](CCSC)NC2=O` (H-GVIINVKCKISRQCLKPCKDAGMRNGKCMNGKCHCTPK-OH; disulfide 8-28, 14-33, 18-35), with 11.5 µg/kg; and `CC[C@H](C)[C@@H]1NC(=O)[C@H](CCCCN)NC(=O)[C@@H](NC(=O)[C@@H](N)CCCCN)CSSC[C@@H]2NC(=O)[C@H](CCCCN)NC(=O)CNC(=O)[C@H](Cc3ccccc3)NC(=O)[C@H](CCCNC(=N)N)NC(=O)[C@H](CCSC)NC(=O)CNC(=O)[C@H](C)NC(=O)[C@H](CC(=O)O)NC(=O)[C@H](CCCCN)NC(=O)[C@@H]3CSSC[C@@H](C(=O)N[C@H](C(=O)N4CCC[C@H]4C(=O)N[C@@H](CCCCN)C(=O)O)[C@@H](C)O)NC(=O)[C@H](Cc4c[nH]cn4)NC(=O)[C@H](CSSC[C@H](NC(=O)[C@H](CCC(N)=O)NC(=O)[C@H](CCCNC(=N)N)NC(=O)[C@H](CO)NC1=O)C(=O)N[C@@H](CC(C)C)C(=O)N[C@@H](CCCCN)C(=O)N1CCC[C@H]1C(=O)N3)NC(=O)[C@H](CCCCN)NC(=O)CNC(=O)[C@H](CC(N)=O)NC(=O)[C@H](CCSC)NC2=O` (H-KCKISRQCLKPCKDAGMRFGKCMNGKCHCTPK-OH; disulfide 2-22, 8-27, 12-29), with 6.5 µg/kg. `CC[C@H](C)[C@@H]1NC(=O)[C@H](CCCCN)NC(=O)[C@@H](NC(=O)[C@H](CCCCN)NC(=O)[C@@H](NC(=O)[C@@H](N)CC(N)=O)C(C)C)CSSC[C@@H]2NC(=O)[C@H](CCCCN)NC(=O)CNC(=O)[C@H](Cc3ccccc3)NC(=O)[C@H](CCCNC(=N)N)NC(=O)[C@H](CCSC)NC(=O)CNC(=O)[C@H](C)NC(=O)[C@H](CC(=O)O)NC(=O)[C@H](CCCCN)NC(=O)[C@@H]3CSSC[C@@H](C(=O)N[C@H](C(=O)N4CCC[C@H]4C(=O)N[C@@H](CCCCN)C(=O)O)[C@@H](C)O)NC(=O)[C@H](Cc4c[nH]cn4)NC(=O)[C@H](CSSC[C@H](NC(=O)[C@H](CCC(N)=O)NC(=O)[C@H](CCCNC(=N)N)NC(=O)[C@H](CO)NC1=O)C(=O)N[C@@H](CC(C)C)C(=O)N[C@@H](CCCCN)C(=O)N1CCC[C@H]1C(=O)N3)NC(=O)[C@H](CCCCN)NC(=O)CNC(=O)[C@H](CC(N)=O)NC(=O)[C@H](CCSC)NC2=O` (H-NVKCKISRQCLKPCKDAGMRFGKCMNGKCHCTPK-OH; disulfide 4-24, 10-29, 14-31) had an LD50 of 5 µg/kg.

In turn, `CC[C@H](C)[C@@H]1NC(=O)[C@H](CCCCN)NC(=O)[C@@H](NC(=O)[C@H](CCCCN)NC(=O)[C@@H](NC(=O)[C@H](CC(N)=O)NC(=O)[C@@H](NC(=O)[C@@H](NC(=O)[C@@H](N)[C@@H](C)O)[C@@H](C)CC)[C@@H](C)CC)C(C)C)CSSC[C@@H]2NC(=O)[C@H](CCCCN)NC(=O)CNC(=O)[C@H](Cc3ccccc3)NC(=O)[C@H](CCCNC(=N)N)NC(=O)[C@H](CCSC)NC(=O)CNC(=O)[C@H](C)NC(=O)[C@H](CC(=O)O)NC(=O)[C@H](CCCCN)NC(=O)[C@@H]3CSSC[C@@H](C(=O)N[C@H](C(=O)N4CCC[C@H]4C(=O)N[C@@H](CCCCN)C(=O)O)[C@@H](C)O)NC(=O)[C@H](Cc4c[nH]cn4)NC(=O)[C@H](CSSC[C@H](NC(=O)[C@H](CCC(N)=O)NC(=O)[C@H](CCCNC(=N)N)NC(=O)[C@H](CO)NC1=O)C(=O)N[C@@H](CC(C)C)C(=O)N[C@@H](CCCCN)C(=O)N1CCC[C@H]1C(=O)N3)NC(=O)[C@H](CCCCN)NC(=O)CNC(=O)[C@H](CC(N)=O)NC(=O)[C@H](CCSC)NC2=O` (H-TIINVKCKISRQCLKPCKDAGMRFGKCMNGKCHCTPK-OH; disulfide 7-27, 13-32, 17-34) had an LD50 of 3 µg/kg. Against the preceding compound, the LD50 is about 1.7-fold lower.

Source of the values: patent publication US7745575B1 (Cellpep Pharma Inc., priority 2004, dated 2010).
